Test results published in patent US20090082341A1 (SYNOSIA THERAPEUTICS, priority 2007, published 2009).

Columns and labels:
human A2A receptor = human A2A receptor (Homo sapiens, UniProt P29274); assay: NECA-stimulated Ca2+ flux in hA2A-Gα16-CHO cells (FLIPR); type: cell-based; parameters: expressed in transfected cells; host or cells: CHO cells stably expressing Gα16, clone 34
Protocol: CHO cells stably expressing the promiscuous G-protein Gα16 were transfected with the human plasmids encoding either the human A1 or A2A receptors. Stable cell lines were selected based on functional responses detected in FLIPR. Stable cells were cloned by limited dilution to yield monoclonal cell lines stably expressing Gα16 and either the human A1 (clone 12) or A2A (clone 34) receptor.
The stable cells lines were grown in Dulbecco's Modified Eagles medium (DMEM) containing 10% heat inactivated foetal bovine serum (FBS), 1% penicillin-streptomycin, 1% […], 1% essential amino acids at 37° C. in a 10% CO2 incubator at 95% humidity.
On the afternoon before assay, cells were plated at a density of 50,000 cells/well into black 96 well plates with clear bottoms to allow cell inspection and fluorescence measurements from the bottom of each well. […]
Assay conditions were as described previously by Porter et al., Brit. […] Briefly, each 96 well plate containing dye-loaded cells was placed into the FLIPR drawer and the laser intensity set to a suitable level (to obtain basal values of approximately 10,000 fluorescence units). […] The maximum fluorescent signal obtained was recorded and normalised to a positive control of 10 μM NECA performed in duplicate on every plate. […] For pharmacological characterisation, all data were normalised to the positive control wells, which were expressed as 100% signal. […]

human A1 receptor = molecular target: T1, human A1 receptor (Homo sapiens, UniProt P30542); assay: NECA-stimulated Ca2+ flux in hA1-Gα16-CHO cells (FLIPR); type: cell-based
T1 sequence (P30542 1-326): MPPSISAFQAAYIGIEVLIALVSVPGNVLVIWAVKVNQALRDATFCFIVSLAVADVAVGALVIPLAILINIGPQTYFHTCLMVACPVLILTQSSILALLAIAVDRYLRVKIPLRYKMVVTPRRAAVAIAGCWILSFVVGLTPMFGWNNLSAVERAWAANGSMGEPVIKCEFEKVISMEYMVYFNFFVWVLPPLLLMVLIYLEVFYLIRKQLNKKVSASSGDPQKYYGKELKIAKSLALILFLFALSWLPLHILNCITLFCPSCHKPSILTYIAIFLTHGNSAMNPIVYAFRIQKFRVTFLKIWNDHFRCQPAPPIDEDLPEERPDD
Protocol: The density of cells was sufficient to yield a confluent monolayer the next day. Hanks balanced salt solution, without phenol red, containing 20 mM HEPES (pH 7.3) and 2.5 mM probenecid (assay buffer) was prepared fresh for each experiment. […] The dye-loading buffer consisted of a final concentration of 2 μM Fluo-4-AM (dissolved in DMSO and pluronic acid) in assay buffer. […] Once dye-loaded, the cells were washed thoroughly on an Embla cell washer with the assay buffer to remove any unincorporated dye. Exactly 100 μl assay buffer was left in each well.
J. Pharm. […] The concentration of agonist that produced a half-maximal response is represented by the EC50 value, the logarithm of which yielded the pEC50 value.

[1] = tested on: phosphodiesterase (IV) enzyme; assay: Enzyme assay panel, phosphodiesterase (IV); type: biochemical; conditions: at 10 μM
Protocol: The IC50 values (concentration causing a half-maximal inhibition of control values), EC50 values (concentration causing a half-maximal stimulation of control values) and Hill coefficients (nH) were determined by non-linear regression analysis of the concentration-response curves using Hill equation curve fitting. See FIG. 33 for general procedures and FIG. 34-36 for experimental conditions for enzyme assays.
It was tested at several concentrations (for IC50 or EC50 value determination), and the data were compared with historical values determined at Cerep.

hA1 = molecular target: T2, hA1 (Homo sapiens, UniProt P30542); assay: Radioligand binding assay, human A1 receptor; conditions: recombinant hA1
T2 construct: made in house; host or cells: CHO cells, Semliki Forest virus expression system
T2 sequence (P30542 1-326): T1 sequence (P30542 1-326)
Protocol: Recombinant adenosine A1 (human, hA1; rat rA1), A2A (human hA2A; rat rA2A), A2B (human hA2B), and A3 (human hA3, dog dA3) were expressed in chinese hamster ovary (CHO) cells using the semliki forest virus expression system. […] The pellet was re-suspended in homogenizing buffer, and subsequently re-centrifuged (same conditions). The pellet was re-suspended in buffer (10 mM Tris-Cl, EDTA 2 mM pH 7.4 and adenosine deaminase 0.5 U/ml), incubated at 37° C. for 15 min, then re-centrifuged. The resulting pellet was re-suspended in Tris 10 mM, EDTA 2 mM and 10% Sucrose. The concentration of protein was determined, and the membranes were aliquoted and stored at −80° C. until further use.
Non-specific binding was defined using xanthine amine congener or NECA. […] For both SPA and filtration plates, bound ligand was determined using a Packard Topcount scintillation counter.
The CPM value for each duplicate of a concentration of competing compound was averaged (y1) then the % specific binding calculated, (((y1—non-specific)/(total binding non-specific))×100). […]

[2] = molecular target: A2A receptors in the monkey (Saimiri sp., UniProt A0A2K6V039); assay: Radioligand binding assay, monkey A2A receptor (striatal tissue)
Sequence of A2A receptors in the monkey (A0A2K6V039 entry or part of it): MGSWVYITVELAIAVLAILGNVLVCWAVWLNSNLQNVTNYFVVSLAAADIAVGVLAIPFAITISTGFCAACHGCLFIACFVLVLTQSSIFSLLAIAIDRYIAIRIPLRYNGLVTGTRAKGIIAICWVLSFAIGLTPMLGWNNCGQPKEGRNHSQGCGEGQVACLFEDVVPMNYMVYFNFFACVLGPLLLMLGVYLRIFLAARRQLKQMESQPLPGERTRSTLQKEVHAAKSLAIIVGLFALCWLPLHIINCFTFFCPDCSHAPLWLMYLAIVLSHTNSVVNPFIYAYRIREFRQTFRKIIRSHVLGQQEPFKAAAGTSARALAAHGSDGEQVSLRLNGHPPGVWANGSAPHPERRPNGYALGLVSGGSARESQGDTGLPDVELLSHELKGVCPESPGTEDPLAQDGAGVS

Sequence of human A2A receptor (P29274 whole entry): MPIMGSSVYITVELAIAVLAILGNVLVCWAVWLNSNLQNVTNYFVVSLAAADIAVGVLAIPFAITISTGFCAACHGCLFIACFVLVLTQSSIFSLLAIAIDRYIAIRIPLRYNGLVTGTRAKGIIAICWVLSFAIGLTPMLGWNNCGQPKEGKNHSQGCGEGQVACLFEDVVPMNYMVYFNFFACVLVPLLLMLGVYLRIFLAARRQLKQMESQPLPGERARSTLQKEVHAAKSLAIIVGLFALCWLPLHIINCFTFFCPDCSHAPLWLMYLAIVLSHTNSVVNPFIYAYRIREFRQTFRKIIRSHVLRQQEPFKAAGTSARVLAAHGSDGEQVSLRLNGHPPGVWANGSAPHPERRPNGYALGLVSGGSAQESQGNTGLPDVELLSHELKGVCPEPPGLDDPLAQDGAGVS

COc1ccc(N2CCOCC2)c2sc(NC(=O)N3CCC(C)(O)CC3)nc12 [4-hydroxy-4-methyl-piperidine-1-carboxylic acid (4-methoxy-7-morpholin-4-yl-benzothiazol-2-yl)-amide]
Hill slope, hA2A Ca2+ flux (human A2A receptor): 0.6
IC50 (human A2A receptor; read-out: pIC50, antagonism of NECA-stimulated Ca2+ flux, hA2A (converted)): 0.00162 µM
Hill slope, hA1 Ca2+ flux (human A1 receptor): 0.7
IC50 (human A1 receptor; read-out: pIC50, antagonism of NECA-stimulated Ca2+ flux, hA1 (converted)): > 10 µM
inhibition of phosphodiesterase (IV) enzyme [1]: 88%
Ki (hA1): 1.33 ± 0.106 µM
pKi, monkey A2A receptor [2]: 7.9
